Molecule `O=Cc1cc2cc(Cl)ccc2s1` came in with a logP of 2.94.

Take `OCc1cc2cc(Cl)ccc2s1`: the lipophilicity (logP) stood at 2.71.

`COC(=O)c1sc2c(OC)ccc(OC)c2c1N` had a logP of 2.97.

`COC(=O)c1cc2ccccc2s1` yielded a lipophilicity (logP) of 3.21.

On to `COC(=O)c1cc2ccc([N+](=O)[O-])cc2s1`, for which the logP was found to be 3.06.

Molecule `COc1ccc(OC)c2sc(C=O)cc12` registered a logP of 2.75.

Regarding `OCc1sc2ccc(Cl)cc2c1Br`, the logP came out at 3.6.

In turn, `COC(=O)c1cc2cc(Cl)ccc2s1` registered a logP of 3.81.

In turn, `COc1ccc(OC)c2sc(CO)cc12` had a lipophilicity (logP) of 2.11.

Turning to `O=Cc1sc2ccc(Cl)cc2c1Br`, the logP was determined as 3.89.

`CN(C)N=Cc1sc2ccc(Cl)cc2c1Br` had a log partition coefficient (logP) of 4.54.

On to `OCc1cc2ccccc2s1`, for which the logP amounted to 2.08.

In the case of `CN(C)N=Cc1cc2cc(Cl)ccc2s1`, the logP amounted to 4.18.

Usually logP stands for the decadic logarithm of the partition coefficient of the neutral form, usually between octanol and water.

For the origin of these results see the SangsterLogP compilation.
